Columns and labels:
Test in all cases: Bacteriostatic ring test on double-layer agar
Format in all cases: cell-based
[1] = test system: Salmonella Pullorum (strain name: CVCC1800); settings: 50 μL filtrate (combination 25 uL + 25 uL), double-layer LB agar, 37° C., 18 h; FIG. 1
Method: (§1) Salmonella Pullorum (strain name: CVCC1800), Salmonella enteritidis (strain name: CVCC3377) and Salmonella typhimurium (strain name: ATCC14028) were respectively resuscitated in a LB agar plate (with the formula as shown in Table 4) (cultured in a 5% CO2 incubator at 37° C. for 16 h). Single colonies were picked and subjected to shaking culture until OD600=0.8. The bacterial solution was inoculated into a soft agar medium containing 5% LB (with the formula as shown in Table 5) at about 42° C. in a proportion of 1:1,000, and then spread onto a LB agar plate to form an upper and lower double-layer agar medium. 30 min later, after the soft agar was cooled and solidified, a mixed solution of 50 μL of the filtrate obtained in Example 1 (the Microcin MccY), 50 μL of the filtrate obtained in Example 2, 50 μL of the filtrate obtained in Example 3 (the Microcin MccJ25), 25 uL of the filtrate obtained in Example 1 (the Microcin MccY) and 25 uL of the filtrate obtained in Example 3 (the Microcin MccJ25) was taken and added into the upper and lower double-layer agar medium containing Salmonella Pullorum, Salmonella enteritidis and Salmonella typhimurium. The upper and lower double-layer agar medium was then placed into a 5% CO2 bacterial incubator at 37° C. for static culture for 18 h, and then observed for a bacteriostatic ring.

[2] = test system: Salmonella typhimurium (strain name: ATCC14028); settings: 50 μL filtrate (combination 25 uL + 25 uL), double-layer LB agar, 37° C., 18 h; FIG. 1
Method: as §1

[3] = test system: Salmonella Infantis (strain name: CMCC50041); settings: 50 μL filtrate (combination 25 uL + 25 uL), double-layer LB agar, 37° C., 18 h; FIG. 2
Method: (§2) Salmonella kentucky (strain name: BNCC239114), Salmonella Infantis (strain name: CMCC50041) and Salmonella london (strain name: CVCC2206) were respectively resuscitated in a LB agar plate (with the formula as shown in Table 4) (cultured in a 5% CO2 incubator at 37° C. for 16 h). Single colonies were picked and subjected to shaking culture until OD600=0.8. The bacterial solution was inoculated into a soft agar medium containing 5% LB (with the formula as shown in Table 5) at about 42° C. in a proportion of 1:1,000, and then spread onto a LB agar plate to form an upper and lower double-layer agar medium. 30 min later, after the soft agar was cooled and solidified, a mixed solution of 50 μL of the filtrate obtained in Example 1 (the Microcin MccY), 50 μL of the filtrate obtained in Example 2, 50 μL of the filtrate obtained in Example 3 (the Microcin MccJ25), 25 uL of the filtrate obtained in Example 1 (the Microcin MccY) and 25 uL of the filtrate obtained in Example 3 (the Microcin MccJ25) was taken and added into the upper and lower double-layer agar medium containing […]. The upper and lower double-layer agar medium was then placed into a 5% CO2 bacterial incubator at 37° C. for static culture for 18 h, and then observed for a bacteriostatic ring.

[4] = test system: Salmonella kentucky (strain name: BNCC239114); settings: 50 μL filtrate (combination 25 uL + 25 uL), double-layer LB agar, 37° C., 18 h; FIG. 2
Method: as §2

[5] = test system: Salmonella london (strain name: CVCC2206); settings: 50 μL filtrate (combination 25 uL + 25 uL), double-layer LB agar, 37° C., 18 h; FIG. 2
Method: as §2

[6] = test system: Shigella flexneri (strain name: CMCC51572); settings: 50 μL filtrate, double-layer LB agar, 37° C., 18 h; FIG. 3
Method: (§3) Shigella flexneri (strain name: CMCC51572) and Shigella sonnei (strain name: CMCC51592) were respectively resuscitated in a LB agar plate (with the formula as shown in Table 4) (cultured in a 5% CO2 incubator at 37° C. for 16 h). Single colonies were picked and subjected to shaking culture until OD600=0.8. The bacterial solution was inoculated into a soft agar medium containing 5% LB (with the formula as shown in Table 5) at about 42° C. in a proportion of 1:1,000, and then spread onto a LB agar plate to form an upper and lower double-layer agar medium. 30 min later, after the soft agar was cooled and solidified, each 50 μL of the filtrate obtained in Example 1 (the Microcin MccY) and methanol were respectively taken and added into the upper and lower double-layer agar medium containing Shigella flexneri and Shigella sonnei (the control group was added with the same amount of the filtrate obtained in Example 2). The upper and lower double-layer agar medium was then placed into a 5% CO2 bacterial incubator at 37° C. for static culture for 18 h, and then observed for a bacteriostatic ring.

[7] = test system: Shigella sonnei (strain name: CMCC51592); settings: 50 μL filtrate, double-layer LB agar, 37° C., 18 h; FIG. 3
Method: as §3

[8] = test system: Salmonella enteritidis (strain name: CVCC3377); settings: 50 μL filtrate (combination 25 uL + 25 uL), double-layer LB agar, 37° C., 18 h; FIG. 1
Method: as §1

Row | Substance | bacteriostatic effect (bacteriostatic ring) against Salmonella Pullorum [1] | bacteriostatic effect (bacteriostatic ring) against Salmonella typhimurium [2] | bacteriostatic effect (bacteriostatic ring) against Salmonella Infantis [3] | bacteriostatic effect (bacteriostatic ring) against Salmonella kentucky [4] | bacteriostatic effect (bacteriostatic ring) against Salmonella london [5] | bacteriostatic effect (bacteriostatic ring) against Shigella flexneri [6] | bacteriostatic effect (bacteriostatic ring) against Shigella sonnei [7] | bacteriostatic effect (bacteriostatic ring) against Salmonella enteritidis [8]
1 | MccY: Microcin with amino acid sequence GGRGHIAEYFSGPITQVSFYG (SEQ ID NO.1); tested as filtrate expressed by pET-28a(+)-MccY-containing BL21(DE3) bacteria (Primer) | inhibitory effects | inhibitory effects | inhibitory effects | inhibitory effects | inhibitory effects | not sensitive | sensitive | 
2 | MccJ25: Known Microcin MccJ25 (SEQ ID NO.10); tested as filtrate expressed by pET-28a(+)-MccJ25-containing BL21(DE3) bacteria (GGAGHVPEYFVGIGTPISFYG; Primer) [reference compound] |  |  | no inhibitory effect | no inhibitory effect | no inhibitory effect |  |  | inhibitory effect
